From PubChem BioAssay AID1259407 (Chemical Carcinogenesis Research Information System (CCRIS), 2018) come the findings set out here.

The test system of this data set is CCRIS mutagenicity, Ames/micronucleus/aberration tests. The data set can be described thus: CCRIS mutagenicity studies.
The mark [1] stands for this setting: Test System: AMES SALMONELLA TYPHIMURIUM, Strain/Indicator: TA98, Metabolic Activation: NONE, Method: STANDARD PLATE.
The mark [2] stands for this setting: Test System: AMES SALMONELLA TYPHIMURIUM, Strain/Indicator: TA100, Metabolic Activation: NONE, Method: STANDARD PLATE.
[3] abbreviates: Test System: AMES SALMONELLA TYPHIMURIUM, Strain/Indicator: TA1537, Metabolic Activation: NONE, Method: STANDARD PLATE.

Structures are written as SMILES. The source made the active and inactive calls. No rule for the calls is given here.

In the case of `COc1ccc(N)c(OC)c1`, the mutagenic call is “active; positive” (Test System: AMES SALMONELLA TYPHIMURIUM, Strain/Indicator: TA98, Metabolic Activation: HAMSTER, LIVER, S-9, AROCLOR 1254 (30%), Method: PREINCUBATION); “inactive; negative” (Test System: AMES SALMONELLA TYPHIMURIUM, Strain/Indicator: TA98, Metabolic Activation: HAMSTER, LIVER, S-9, Method: STANDARD PLATE); “inactive; negative” (Test System: AMES SALMONELLA TYPHIMURIUM, Strain/Indicator: TA98, Metabolic Activation: MOUSE, LIVER, S-9, AROCLOR 1254, Method: STANDARD PLATE); “inactive; negative” (Test System: AMES SALMONELLA TYPHIMURIUM, Strain/Indicator: TA98, Metabolic Activation: MOUSE, LIVER, S-9, Method: STANDARD PLATE); “inactive; negative” (Test System: AMES SALMONELLA TYPHIMURIUM, Strain/Indicator: TA98, Metabolic Activation: NONE, Method: PREINCUBATION); “inactive; negative” under setting [1]. The mutagenic call was “active; positive” (Test System: AMES SALMONELLA TYPHIMURIUM, Strain/Indicator: TA98, Metabolic Activation: RAT, LIVER, S-9, AROCLOR 1254 (30%), Method: PREINCUBATION); “inactive; negative” (Test System: AMES SALMONELLA TYPHIMURIUM, Strain/Indicator: TA98, Metabolic Activation: RAT, LIVER, S-9, Method: STANDARD PLATE); “active; positive” (Test System: AMES SALMONELLA TYPHIMURIUM, Strain/Indicator: TA100, Metabolic Activation: HAMSTER, LIVER, S-9, AROCLOR 1254 (30%), Method: PREINCUBATION); “inactive; negative” (Test System: AMES SALMONELLA TYPHIMURIUM, Strain/Indicator: TA100, Metabolic Activation: HAMSTER, LIVER, S-9, AROCLOR 1254, Method: STANDARD PLATE); “inactive; negative” (Test System: AMES SALMONELLA TYPHIMURIUM, Strain/Indicator: TA100, Metabolic Activation: HAMSTER, LIVER, S-9, Method: STANDARD PLATE); “inactive; negative” (Test System: AMES SALMONELLA TYPHIMURIUM, Strain/Indicator: TA100, Metabolic Activation: MOUSE, LIVER, S-9, AROCLOR 1254, Method: STANDARD PLATE). Also, the mutagenic call is, setting by setting: (Test System: AMES SALMONELLA TYPHIMURIUM, Strain/Indicator: TA100, Metabolic Activation: MOUSE, LIVER, S-9, Method: STANDARD PLATE) “inactive; negative”; (Test System: AMES SALMONELLA TYPHIMURIUM, Strain/Indicator: TA100, Metabolic Activation: NONE, Method: PREINCUBATION) “inactive; negative”; under setting [2], “inactive; negative”; (Test System: AMES SALMONELLA TYPHIMURIUM, Strain/Indicator: TA100, Metabolic Activation: RAT, LIVER, S-9, AROCLOR 1254 (30%), Method: PREINCUBATION) “inactive; negative”; (Test System: AMES SALMONELLA TYPHIMURIUM, Strain/Indicator: TA100, Metabolic Activation: RAT, LIVER, S-9, AROCLOR 1254, Method: STANDARD PLATE) “inactive; negative”; (Test System: AMES SALMONELLA TYPHIMURIUM, Strain/Indicator: TA100, Metabolic Activation: RAT, LIVER, S-9, Method: STANDARD PLATE) “inactive; negative”. Also, the mutagenic call reads like this: (Test System: AMES SALMONELLA TYPHIMURIUM, Strain/Indicator: TA1535, Metabolic Activation: HAMSTER, LIVER, S-9, AROCLOR 1254, Method: STANDARD PLATE) “inactive; negative”; (Test System: AMES SALMONELLA TYPHIMURIUM, Strain/Indicator: TA1535, Metabolic Activation: HAMSTER, LIVER, S-9, Method: STANDARD PLATE) “inactive; negative”; (Test System: AMES SALMONELLA TYPHIMURIUM, Strain/Indicator: TA1535, Metabolic Activation: MOUSE, LIVER, S-9, AROCLOR 1254, Method: STANDARD PLATE) “inactive; negative”; (Test System: AMES SALMONELLA TYPHIMURIUM, Strain/Indicator: TA1535, Metabolic Activation: MOUSE, LIVER, S-9, Method: STANDARD PLATE) “inactive; negative”; (Test System: AMES SALMONELLA TYPHIMURIUM, Strain/Indicator: TA1535, Metabolic Activation: NONE, Method: STANDARD PLATE) “inactive; negative”; (Test System: AMES SALMONELLA TYPHIMURIUM, Strain/Indicator: TA1535, Metabolic Activation: RAT, LIVER, S-9, AROCLOR 1254, Method: STANDARD PLATE) “inactive; negative”. In addition, the mutagenic call (Test System: AMES SALMONELLA TYPHIMURIUM, Strain/Indicator: TA1535, Metabolic Activation: RAT, LIVER, S-9, Method: STANDARD PLATE) is “inactive; negative”; the mutagenic call (Test System: AMES SALMONELLA TYPHIMURIUM, Strain/Indicator: TA1537, Metabolic Activation: HAMSTER, LIVER, S-9, Method: STANDARD PLATE) is “inactive; negative”; the mutagenic call (Test System: AMES SALMONELLA TYPHIMURIUM, Strain/Indicator: TA1537, Metabolic Activation: MOUSE, LIVER, S-9, AROCLOR 1254, Method: STANDARD PLATE) is “inactive; negative”; the mutagenic call (Test System: AMES SALMONELLA TYPHIMURIUM, Strain/Indicator: TA1537, Metabolic Activation: MOUSE, LIVER, S-9, Method: STANDARD PLATE) was “inactive; negative”; the mutagenic call under setting [3] was “inactive; negative”; the mutagenic call (Test System: AMES SALMONELLA TYPHIMURIUM, Strain/Indicator: TA1537, Metabolic Activation: RAT, LIVER, S-9, AROCLOR 1254, Method: STANDARD PLATE) is “inactive; negative”. Moreover, the mutagenic call is “inactive; negative” (Test System: AMES SALMONELLA TYPHIMURIUM, Strain/Indicator: TA1537, Metabolic Activation: RAT, LIVER, S-9, Method: STANDARD PLATE); “inactive; negative” (Test System: AMES SALMONELLA TYPHIMURIUM, Strain/Indicator: TA1538, Metabolic Activation: MOUSE, LIVER, S-9, Method: STANDARD PLATE); “inactive; negative” (Test System: AMES SALMONELLA TYPHIMURIUM, Strain/Indicator: TA1538, Metabolic Activation: NONE, Method: STANDARD PLATE); “inactive; negative” (Test System: AMES SALMONELLA TYPHIMURIUM, Strain/Indicator: TA1538, Metabolic Activation: RAT, LIVER, S-9, Method: STANDARD PLATE); “inactive; negative” (Test System: E. COLI, Strain/Indicator: WP2 UVRA, Metabolic Activation: HAMSTER, LIVER, S-9, AROCLOR 1254, Method: STANDARD PLATE); “inactive; negative” (Test System: E. COLI, Strain/Indicator: WP2 UVRA, Metabolic Activation: HAMSTER, LIVER, S-9, Method: STANDARD PLATE). For the same compound, the mutagenic call was “inactive; negative” (Test System: E. COLI, Strain/Indicator: WP2 UVRA, Metabolic Activation: MOUSE, LIVER, S-9, AROCLOR 1254, Method: STANDARD PLATE); “inactive; negative” (Test System: E. COLI, Strain/Indicator: WP2 UVRA, Metabolic Activation: MOUSE, LIVER, S-9, Method: STANDARD PLATE); “inactive; negative” (Test System: E. COLI, Strain/Indicator: WP2 UVRA, Metabolic Activation: NONE, Method: STANDARD PLATE); “inactive; negative” (Test System: E. COLI, Strain/Indicator: WP2 UVRA, Metabolic Activation: RAT, LIVER, S-9, AROCLOR 1254, Method: STANDARD PLATE); “inactive; negative” (Test System: E. COLI, Strain/Indicator: WP2 UVRA, Metabolic Activation: RAT, LIVER, S-9, Method: STANDARD PLATE).
As for `Cc1cc([N+](=O)[O-])c(C)c2c1[nH]c1ccccc12`, the mutagenic call under setting [1] was “active; positive”; the mutagenic call (Test System: AMES SALMONELLA TYPHIMURIUM, Strain/Indicator: TA98, Metabolic Activation: RAT LIVER S-9, AROCLOR 1254, Method: STANDARD PLATE) is “active; positive”; the mutagenic call under setting [2] is “inactive; negative”; the mutagenic call (Test System: AMES SALMONELLA TYPHIMURIUM, Strain/Indicator: TA100, Metabolic Activation: RAT LIVER S-9, AROCLOR 1254, Method: STANDARD PLATE) was “inactive; negative”; the mutagenic call under setting [3] was “inactive; negative”; the mutagenic call (Test System: AMES SALMONELLA TYPHIMURIUM, Strain/Indicator: TA1537, Metabolic Activation: RAT LIVER S-9, AROCLOR 1254, Method: STANDARD PLATE) is “active; positive”. The mutagenic call (Test System: AMES SALMONELLA TYPHIMURIUM, Strain/Indicator: TA1977, Metabolic Activation: NONE, Method: STANDARD PLATE) is “active; positive” and the mutagenic call (Test System: AMES SALMONELLA TYPHIMURIUM, Strain/Indicator: TA1977, Metabolic Activation: RAT LIVER S-9, AROCLOR 1254, Method: STANDARD PLATE) was “active; positive”.
As for `CC(=O)O/C=C/Cc1ccc2c(c1)OCO2`, the mutagenic call (Test System: UDS HUMAN FIBROBLASTS, Strain/Indicator: THY INCORP (NON-S-PHASE), Metabolic Activation: NONE, Method: AUTORADIOGRAPHY) is “active; positive”.
As for `O=c1c(O[C@@H]2O[C@H](CO)[C@H](O)[C@H](O)[C@H]2O)c(-c2ccc(O)c(O)c2)oc2cc(O)cc(O)c12`, the mutagenic call by setting is: (Test System: Ames Salmonella typhimurium, Strain/Indicator: TA98, Metabolic Activation: None, Method: Standard plate) “inactive; negative”; (Test System: Ames Salmonella typhimurium, Strain/Indicator: TA98, Metabolic Activation: Rat, Liver, S-9, Aroclor 1254, Method: Standard plate) “inactive; negative”.
